These results are taken from ChEMBL document CHEMBL3856198, “Synthesis of novel 17-(4'-formyl)pyrazolylandrosta-5,16-dienes and their derivatives as potent 17α-hydroxylase/C17,20-lyase inhibitors or antiproliferative agents depending on the substitution pattern of the heteroring” (Eur J Med Chem, 2016).

As a reminder, the IC50 is the concentration at which inhibition is half-maximal.

A short description of series [1]: Growth inhibition of human MCF7 cells at 10 uM after 72 hrs by MTT assay. In kind it is functional. To be noted: MCF7, 72 h, read-out: GI. For orientation: Tetrazolium assays rely on reduction of a dye to a coloured formazan, in cell work by metabolically active cells.
Series [2] is described as follows: Growth inhibition of human MCF7 cells at 30 uM after 72 hrs by MTT assay. To be noted: MCF7, 72 h, read-out: GI. In kind it is functional.
The nature of series [3]: Growth inhibition of human T47D cells at 10 uM after 72 hrs by MTT assay. It counts as functional. As to conditions: read-out: GI.
The nature of series [4]: Growth inhibition of human T47D cells at 30 uM after 72 hrs by MTT assay. In kind it is functional. To be noted: read-out: GI.
A short description of series [5]: Growth inhibition of human MDA-MB-231 cells at 10 uM after 72 hrs by MTT assay. To be noted: MDA-MB-231, 72 h, read-out: GI. In kind it is functional.
The nature of series [6]: Growth inhibition of human MDA-MB-231 cells at 30 uM after 72 hrs by MTT assay. To be noted: MDA-MB-231, 72 h, read-out: GI. It counts as functional.
A short description of series [7]: Growth inhibition of human MDA-MB-361 cells at 10 uM after 72 hrs by MTT assay. In kind it is functional. To be noted: MDA-MB-361, 72 h, read-out: GI.
Series [8] in a line: Growth inhibition of human MDA-MB-361 cells at 30 uM after 72 hrs by MTT assay. It counts as functional. To be noted: MDA-MB-361, 72 h, read-out: GI.
For series [9], the target named is T1, Steroid 17-alpha-hydroxylase/17,20 lyase (Rattus norvegicus, UniProt P11715).
T1 sequence (P11715 whole entry): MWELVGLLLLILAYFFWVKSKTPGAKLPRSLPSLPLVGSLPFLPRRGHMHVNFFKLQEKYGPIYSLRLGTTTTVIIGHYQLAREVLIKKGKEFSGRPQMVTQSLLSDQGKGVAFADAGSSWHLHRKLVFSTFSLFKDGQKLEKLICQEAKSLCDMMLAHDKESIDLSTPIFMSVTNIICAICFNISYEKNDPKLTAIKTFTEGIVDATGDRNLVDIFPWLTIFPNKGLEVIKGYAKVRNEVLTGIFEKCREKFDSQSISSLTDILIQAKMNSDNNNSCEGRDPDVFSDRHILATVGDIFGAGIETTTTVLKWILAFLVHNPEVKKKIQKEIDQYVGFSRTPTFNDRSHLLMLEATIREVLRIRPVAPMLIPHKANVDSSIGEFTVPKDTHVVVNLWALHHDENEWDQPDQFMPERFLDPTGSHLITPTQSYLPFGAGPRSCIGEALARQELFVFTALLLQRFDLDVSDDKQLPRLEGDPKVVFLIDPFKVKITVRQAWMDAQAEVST
Put plainly: Inhibition of Wistar rat testicular C17,20-lyase assessed as androst-4-ene-3,17-dione formation using [3H]17-hydroxyprogesterone as substrate in presence of NADPH.

Series [10] addresses T1, Steroid 17-alpha-hydroxylase/17,20 lyase. As to the kind of experiment: Potency index, ratio of ketoconazole IC50 to compound IC50 for Wistar rat testicular C17,20-lyase.

Take `C[C@]12CC[C@H](O)CC1=CC[C@@H]1[C@@H]2CC[C@]2(C)C(c3n[nH]cc3CO)=CC[C@@H]12`: the inhibition of growth at 10 µM in series [1], in [3], in [5] and in series [7] was below 20% throughout. Further, the inhibition of growth at 30 µM in series [2] was below 20%; in series [4], 25.7%; in series [6] it was below 20%; in series [8], 35.6%. Moreover, the half-inhibitory concentration (IC50) in [9] is 26 nM. Also, in [10], the “Ratio IC50” value is 12.
